From article PMC7265341, “Quantifying CDK inhibitor selectivity in live cells” (Nature Communications, 2020)
Like-named read-outs stand apart in the source and are kept apart here.

Tests used:
CDK9/Cyclin K = CDK9/Cyclin K (Homo sapiens, UniProt P50750); test: NanoBRET live-cell target engagement, NanoLuc-CDK9/Cyclin K in HEK-293; assay type: binding; conditions: 10µM; independent experiment 2; read-out: CDK9/K Inhibition at 10µM (%)
CDK11A/Cyclin L2 = molecular target: T1, CDK11A/Cyclin L2 (Homo sapiens, UniProt Q9UQ88); test: NanoBRET live-cell target engagement, CDK11A-NanoLuc/Cyclin L2 in HEK-293; assay type: binding; conditions: for inhibition at 10 µM: read-out: CDK11a/L2 Inhibition at 10µM (%); for IC50: read-out: CDK11a/L2 IC50
T1 sequence (Q9UQ88 1-783): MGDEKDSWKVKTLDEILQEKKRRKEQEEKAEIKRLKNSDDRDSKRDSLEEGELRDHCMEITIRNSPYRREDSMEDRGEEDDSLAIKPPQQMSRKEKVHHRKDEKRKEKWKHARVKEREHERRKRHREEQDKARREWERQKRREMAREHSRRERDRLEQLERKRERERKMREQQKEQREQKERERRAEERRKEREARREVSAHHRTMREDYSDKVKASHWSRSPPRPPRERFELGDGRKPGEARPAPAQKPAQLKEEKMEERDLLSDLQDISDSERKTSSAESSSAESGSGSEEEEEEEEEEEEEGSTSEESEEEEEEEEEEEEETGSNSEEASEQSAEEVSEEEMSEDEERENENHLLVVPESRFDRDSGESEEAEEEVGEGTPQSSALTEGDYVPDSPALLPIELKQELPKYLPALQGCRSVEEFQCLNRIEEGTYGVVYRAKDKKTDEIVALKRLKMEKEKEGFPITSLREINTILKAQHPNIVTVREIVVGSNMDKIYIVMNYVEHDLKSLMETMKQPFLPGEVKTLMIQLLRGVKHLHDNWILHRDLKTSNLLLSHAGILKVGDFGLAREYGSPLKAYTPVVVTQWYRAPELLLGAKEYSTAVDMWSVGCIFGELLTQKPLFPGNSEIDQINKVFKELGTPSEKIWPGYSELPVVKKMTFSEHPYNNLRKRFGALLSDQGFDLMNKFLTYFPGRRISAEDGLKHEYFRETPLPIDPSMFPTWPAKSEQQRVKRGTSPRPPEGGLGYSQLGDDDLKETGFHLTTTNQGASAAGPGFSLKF

CDK11B/Cyclin L2 = CDK11B/Cyclin L2 (Homo sapiens, UniProt P21127); test: NanoBRET live-cell target engagement, CDK11B-NanoLuc/Cyclin L2 in HEK-293; assay type: binding; conditions: for inhibition at 10 µM: read-out: CDK11b/L2 Inhibition at 10µM (%); for IC50: read-out: CDK11b/L2 IC50
Chain of CDK11B/Cyclin L2 (P21127 1-782 isoform P21127-2): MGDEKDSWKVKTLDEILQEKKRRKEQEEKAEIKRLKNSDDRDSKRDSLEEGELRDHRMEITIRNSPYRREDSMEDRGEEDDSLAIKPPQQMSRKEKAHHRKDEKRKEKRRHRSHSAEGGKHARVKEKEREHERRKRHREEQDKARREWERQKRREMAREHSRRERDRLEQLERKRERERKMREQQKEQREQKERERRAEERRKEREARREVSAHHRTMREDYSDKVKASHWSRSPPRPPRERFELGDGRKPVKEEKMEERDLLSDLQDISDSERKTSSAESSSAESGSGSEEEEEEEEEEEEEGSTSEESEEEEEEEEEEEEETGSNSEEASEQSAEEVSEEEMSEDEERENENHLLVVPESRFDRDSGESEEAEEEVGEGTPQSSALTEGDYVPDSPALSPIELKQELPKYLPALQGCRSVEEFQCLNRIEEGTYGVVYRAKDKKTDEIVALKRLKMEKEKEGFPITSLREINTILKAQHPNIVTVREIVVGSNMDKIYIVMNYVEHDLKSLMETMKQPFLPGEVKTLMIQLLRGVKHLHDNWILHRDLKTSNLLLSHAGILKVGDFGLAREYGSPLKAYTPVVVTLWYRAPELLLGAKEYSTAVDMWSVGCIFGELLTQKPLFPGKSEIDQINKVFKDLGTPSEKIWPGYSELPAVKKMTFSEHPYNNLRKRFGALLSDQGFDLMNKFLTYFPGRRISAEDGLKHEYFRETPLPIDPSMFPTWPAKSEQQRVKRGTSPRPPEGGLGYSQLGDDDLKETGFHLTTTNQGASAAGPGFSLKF

CDK12/Cyclin K = CDK12/Cyclin K (Homo sapiens, UniProt Q9NYV4); test: NanoBRET live-cell target engagement, CDK12-NanoLuc/Cyclin K in HEK-293; assay type: binding; conditions: for inhibition at 10 µM: read-out: CDK12/K Inhibition at 10µM (%); for IC50: read-out: CDK12/K IC50
Chain of CDK12/Cyclin K (Q9NYV4 1-1481 isoform Q9NYV4-2): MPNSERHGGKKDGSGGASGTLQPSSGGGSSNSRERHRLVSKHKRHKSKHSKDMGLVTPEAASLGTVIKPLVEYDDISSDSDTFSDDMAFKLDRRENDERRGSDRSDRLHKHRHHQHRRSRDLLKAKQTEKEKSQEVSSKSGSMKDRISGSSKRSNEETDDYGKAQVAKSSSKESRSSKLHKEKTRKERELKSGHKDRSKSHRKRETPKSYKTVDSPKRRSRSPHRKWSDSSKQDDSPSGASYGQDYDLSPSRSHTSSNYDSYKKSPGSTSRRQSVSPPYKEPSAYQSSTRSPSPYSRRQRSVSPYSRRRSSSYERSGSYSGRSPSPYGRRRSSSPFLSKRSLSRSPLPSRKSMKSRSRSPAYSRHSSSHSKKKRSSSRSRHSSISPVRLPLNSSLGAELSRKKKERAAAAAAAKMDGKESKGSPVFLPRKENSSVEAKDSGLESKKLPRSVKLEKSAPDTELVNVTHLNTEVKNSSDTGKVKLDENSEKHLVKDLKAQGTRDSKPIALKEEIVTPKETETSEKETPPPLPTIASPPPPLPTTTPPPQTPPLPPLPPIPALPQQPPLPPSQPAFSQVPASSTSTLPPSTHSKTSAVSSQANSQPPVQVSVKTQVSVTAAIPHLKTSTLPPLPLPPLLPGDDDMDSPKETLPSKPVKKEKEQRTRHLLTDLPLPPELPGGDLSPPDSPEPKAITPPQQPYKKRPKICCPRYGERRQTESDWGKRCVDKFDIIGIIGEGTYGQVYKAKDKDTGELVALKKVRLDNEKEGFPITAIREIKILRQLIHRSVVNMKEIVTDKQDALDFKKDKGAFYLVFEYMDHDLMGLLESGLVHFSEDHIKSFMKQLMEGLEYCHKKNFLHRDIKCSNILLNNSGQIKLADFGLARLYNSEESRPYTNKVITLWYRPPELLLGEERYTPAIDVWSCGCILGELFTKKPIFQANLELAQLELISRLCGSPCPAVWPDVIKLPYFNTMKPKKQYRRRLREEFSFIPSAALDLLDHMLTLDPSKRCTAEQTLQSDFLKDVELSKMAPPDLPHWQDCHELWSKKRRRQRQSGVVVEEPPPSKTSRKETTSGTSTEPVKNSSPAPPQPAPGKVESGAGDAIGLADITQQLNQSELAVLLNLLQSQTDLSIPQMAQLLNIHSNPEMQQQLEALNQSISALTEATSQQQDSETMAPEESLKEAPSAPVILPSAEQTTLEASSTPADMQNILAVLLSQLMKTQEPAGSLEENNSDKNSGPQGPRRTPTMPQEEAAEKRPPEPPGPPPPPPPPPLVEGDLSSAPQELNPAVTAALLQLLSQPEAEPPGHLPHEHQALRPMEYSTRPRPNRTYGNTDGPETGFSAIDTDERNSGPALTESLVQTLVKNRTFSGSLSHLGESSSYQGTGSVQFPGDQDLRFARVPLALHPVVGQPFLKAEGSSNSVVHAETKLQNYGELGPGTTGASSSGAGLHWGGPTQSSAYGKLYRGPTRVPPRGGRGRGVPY
Chain of CDK12/Cyclin K (O75909 whole entry partner): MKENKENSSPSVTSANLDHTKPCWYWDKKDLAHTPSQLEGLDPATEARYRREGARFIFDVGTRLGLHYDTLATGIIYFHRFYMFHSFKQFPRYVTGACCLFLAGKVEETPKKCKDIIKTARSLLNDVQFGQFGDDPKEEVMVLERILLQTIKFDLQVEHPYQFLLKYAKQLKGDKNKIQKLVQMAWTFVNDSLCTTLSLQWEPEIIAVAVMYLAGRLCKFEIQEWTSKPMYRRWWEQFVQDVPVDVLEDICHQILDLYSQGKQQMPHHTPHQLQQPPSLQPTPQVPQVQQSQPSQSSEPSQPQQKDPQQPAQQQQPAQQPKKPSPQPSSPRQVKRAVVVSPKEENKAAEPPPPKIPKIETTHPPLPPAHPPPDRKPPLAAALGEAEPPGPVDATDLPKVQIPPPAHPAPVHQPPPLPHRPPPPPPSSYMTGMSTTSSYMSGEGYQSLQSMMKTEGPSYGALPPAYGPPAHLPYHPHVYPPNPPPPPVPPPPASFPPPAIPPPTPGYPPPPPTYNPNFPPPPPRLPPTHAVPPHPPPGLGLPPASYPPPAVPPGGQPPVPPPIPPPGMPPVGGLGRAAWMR

CDK13/Cyclin K = CDK13/Cyclin K (Homo sapiens, UniProt Q14004); test: NanoBRET live-cell target engagement, CDK13-NanoLuc/Cyclin K in HEK-293; assay type: binding; conditions: 10µM, read-out: CDK13/K Inhibition at 10µM (%)
CDK15/Cyclin Y = CDK15/Cyclin Y (Homo sapiens, UniProt Q96Q40); test: NanoBRET live-cell target engagement, NanoLuc-CDK15/Cyclin Y in HEK-293; assay type: binding; conditions: for inhibition at 10 µM: read-out: CDK15/Y Inhibition at 10µM (%); for IC50: read-out: CDK15/Y IC50
CDK16/Cyclin Y = CDK16/Cyclin Y (Homo sapiens, UniProt Q00536); test: NanoBRET live-cell target engagement, CDK16-NanoLuc/Cyclin Y in HEK-293; assay type: binding; conditions: 10µM, read-out: CDK16/Y Inhibition at 10µM (%)
CDK17/Cyclin Y = CDK17/Cyclin Y (Homo sapiens, UniProt Q00537); test: NanoBRET live-cell target engagement, CDK17-NanoLuc/Cyclin Y in HEK-293; assay type: binding; conditions: for inhibition at 10 µM: read-out: CDK17/Y Inhibition at 10µM (%); for IC50: read-out: CDK17/Y IC50
Chain of CDK17/Cyclin Y (Q00537 whole entry): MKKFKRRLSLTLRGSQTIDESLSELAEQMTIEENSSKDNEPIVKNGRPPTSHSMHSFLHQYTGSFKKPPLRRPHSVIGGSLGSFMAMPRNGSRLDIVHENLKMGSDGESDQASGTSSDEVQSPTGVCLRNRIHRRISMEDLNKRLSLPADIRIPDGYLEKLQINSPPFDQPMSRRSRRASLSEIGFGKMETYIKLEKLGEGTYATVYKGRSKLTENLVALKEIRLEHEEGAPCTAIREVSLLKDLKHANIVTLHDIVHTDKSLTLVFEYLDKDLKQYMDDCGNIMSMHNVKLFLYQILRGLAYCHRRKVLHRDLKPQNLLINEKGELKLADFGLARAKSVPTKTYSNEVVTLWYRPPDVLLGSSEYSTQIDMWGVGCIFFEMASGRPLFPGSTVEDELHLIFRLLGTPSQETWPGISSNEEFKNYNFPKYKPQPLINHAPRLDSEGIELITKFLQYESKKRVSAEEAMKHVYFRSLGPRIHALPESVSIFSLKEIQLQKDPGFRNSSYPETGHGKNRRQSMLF
Chain of CDK17/Cyclin Y (Q8ND76 whole entry partner): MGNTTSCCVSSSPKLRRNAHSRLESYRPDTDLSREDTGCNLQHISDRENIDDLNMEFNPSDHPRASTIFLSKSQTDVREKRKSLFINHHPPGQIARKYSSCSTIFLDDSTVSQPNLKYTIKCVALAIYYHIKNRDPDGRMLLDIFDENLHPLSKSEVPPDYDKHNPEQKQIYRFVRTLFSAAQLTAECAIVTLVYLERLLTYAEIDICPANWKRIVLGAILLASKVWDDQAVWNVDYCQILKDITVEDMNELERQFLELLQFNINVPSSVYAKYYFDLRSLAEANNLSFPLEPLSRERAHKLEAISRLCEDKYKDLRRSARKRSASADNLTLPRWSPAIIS

CDK18/Cyclin Y = CDK18/Cyclin Y (Homo sapiens, UniProt Q07002); test: NanoBRET live-cell target engagement, CDK18-NanoLuc/Cyclin Y in HEK-293; assay type: binding; conditions: for inhibition at 10 µM: read-out: CDK18/Y Inhibition at 10µM (%); for IC50: read-out: CDK18/Y IC50
Chain of CDK18/Cyclin Y (Q07002 whole entry): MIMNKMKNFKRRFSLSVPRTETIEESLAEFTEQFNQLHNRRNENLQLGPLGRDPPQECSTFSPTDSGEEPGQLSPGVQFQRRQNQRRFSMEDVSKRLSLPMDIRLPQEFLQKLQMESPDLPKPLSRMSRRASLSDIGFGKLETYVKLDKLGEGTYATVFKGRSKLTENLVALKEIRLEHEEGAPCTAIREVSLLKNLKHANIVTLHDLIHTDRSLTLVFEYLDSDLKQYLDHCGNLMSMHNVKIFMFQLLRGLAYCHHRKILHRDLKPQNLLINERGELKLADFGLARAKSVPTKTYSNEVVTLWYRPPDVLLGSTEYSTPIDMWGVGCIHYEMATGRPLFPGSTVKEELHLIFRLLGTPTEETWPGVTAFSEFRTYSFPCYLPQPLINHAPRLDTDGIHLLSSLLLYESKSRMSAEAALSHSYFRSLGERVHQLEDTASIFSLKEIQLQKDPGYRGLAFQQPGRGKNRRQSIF
Chain of CDK18/Cyclin Y (Q8ND76 whole entry partner): as the sequence (Q8ND76 whole entry partner) above

CDK20/Cyclin H = CDK20/Cyclin H (Homo sapiens, UniProt Q8IZL9); test: NanoBRET live-cell target engagement, NanoLuc-CDK20/Cyclin H in HEK-293; assay type: binding; conditions: 10µM, read-out: CDK20/H Inhibition at 10µM (%)
CDK19/Cyclin C = CDK19/Cyclin C (Homo sapiens, UniProt Q9BWU1); test: NanoBRET live-cell target engagement, NanoLuc-CDK19/Cyclin C in HEK-293; conditions: read-out: CDK19/C Inhibition at 10µM (%), 10µM
Chain of CDK19/Cyclin C (Q9BWU1 whole entry): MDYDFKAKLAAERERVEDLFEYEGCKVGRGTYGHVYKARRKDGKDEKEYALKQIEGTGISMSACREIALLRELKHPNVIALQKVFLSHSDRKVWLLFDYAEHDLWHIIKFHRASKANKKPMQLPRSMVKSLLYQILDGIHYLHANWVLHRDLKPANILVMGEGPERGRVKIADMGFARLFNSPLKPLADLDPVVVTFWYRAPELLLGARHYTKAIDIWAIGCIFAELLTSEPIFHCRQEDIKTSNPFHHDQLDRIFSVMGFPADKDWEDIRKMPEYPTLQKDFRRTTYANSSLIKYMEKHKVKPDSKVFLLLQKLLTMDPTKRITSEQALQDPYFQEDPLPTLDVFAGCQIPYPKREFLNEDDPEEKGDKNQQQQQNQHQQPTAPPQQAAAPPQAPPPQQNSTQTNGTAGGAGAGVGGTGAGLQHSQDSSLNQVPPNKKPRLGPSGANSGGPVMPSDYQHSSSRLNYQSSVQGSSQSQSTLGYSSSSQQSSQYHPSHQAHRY
Chain of CDK19/Cyclin C (P24863 whole entry partner): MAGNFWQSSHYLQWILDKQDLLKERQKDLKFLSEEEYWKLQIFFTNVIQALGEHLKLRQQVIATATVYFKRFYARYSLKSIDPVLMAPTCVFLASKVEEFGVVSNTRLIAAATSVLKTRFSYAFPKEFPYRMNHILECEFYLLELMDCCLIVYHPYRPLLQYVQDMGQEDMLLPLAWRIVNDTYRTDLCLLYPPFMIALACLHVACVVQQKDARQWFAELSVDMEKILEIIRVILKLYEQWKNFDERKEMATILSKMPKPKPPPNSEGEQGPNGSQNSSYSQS

inhibition at 10 µM (CDK9/Cyclin K): 99.2%
inhibition at 10 µM (CDK11A/Cyclin L2; average of experiments): 95.6%
inhibition at 10 µM (CDK11A/Cyclin L2; independent experiment 1): 93.3%
inhibition at 10 µM (CDK11A/Cyclin L2; independent experiment 2): 97.9%
IC50 (CDK11A/Cyclin L2; average (± SEM where n=3)): 190 nM
IC50 (CDK11A/Cyclin L2; independent experiment 1): 200 nM
IC50 (CDK11A/Cyclin L2; independent experiment 2): 180 nM
inhibition at 10 µM (CDK11B/Cyclin L2; average of experiments): 94.9%
inhibition at 10 µM (CDK11B/Cyclin L2; independent experiment 1): 95.5%
inhibition at 10 µM (CDK11B/Cyclin L2; independent experiment 2): 94.4%
IC50 (CDK11B/Cyclin L2; average (± SEM where n=3)): 51 nM
IC50 (CDK11B/Cyclin L2; independent experiment 1): 49 nM
IC50 (CDK11B/Cyclin L2; independent experiment 2): 54 nM
inhibition at 10 µM (CDK12/Cyclin K; average of experiments): 60.9%
inhibition at 10 µM (CDK12/Cyclin K; independent experiment 1): 45.8%
inhibition at 10 µM (CDK12/Cyclin K; independent experiment 2): 76%
IC50 (CDK12/Cyclin K; average (n=2)): 680 nM
IC50 (CDK12/Cyclin K; independent experiment 1): 610 nM
IC50 (CDK12/Cyclin K; independent experiment 2): 750 nM
inhibition at 10 µM (CDK13/Cyclin K; average of experiments): 63.7%
inhibition at 10 µM (CDK13/Cyclin K; independent experiment 1): 47.7%
inhibition at 10 µM (CDK13/Cyclin K; independent experiment 2): 79.6%
inhibition at 10 µM (CDK15/Cyclin Y; average of experiments): 98.1%
inhibition at 10 µM (CDK15/Cyclin Y; independent experiment 1): 97.4%
inhibition at 10 µM (CDK15/Cyclin Y; independent experiment 2): 98.7%
IC50 (CDK15/Cyclin Y; average (± SEM where n=3)): 58 nM
IC50 (CDK15/Cyclin Y; independent experiment 1): 55 nM
IC50 (CDK15/Cyclin Y; independent experiment 2): 61 nM
inhibition at 10 µM (CDK16/Cyclin Y; independent experiment 1): 96.3%
inhibition at 10 µM (CDK16/Cyclin Y; independent experiment 2): 92.9%
inhibition at 10 µM (CDK17/Cyclin Y; average of experiments): 94.8%
inhibition at 10 µM (CDK17/Cyclin Y; independent experiment 1): 96.6%
inhibition at 10 µM (CDK17/Cyclin Y; independent experiment 2): 93.1%
IC50 (CDK17/Cyclin Y; average (± SEM where n=3)): 49 nM
IC50 (CDK17/Cyclin Y; independent experiment 1): 50 nM
IC50 (CDK17/Cyclin Y; independent experiment 2): 47 nM
inhibition at 10 µM (CDK18/Cyclin Y; average of experiments): 101%
inhibition at 10 µM (CDK18/Cyclin Y; independent experiment 1): 98.4%
inhibition at 10 µM (CDK18/Cyclin Y; independent experiment 2): 103%
IC50 (CDK18/Cyclin Y; average (± SEM where n=3)): 82 nM
IC50 (CDK18/Cyclin Y; independent experiment 1): 99 nM
IC50 (CDK18/Cyclin Y; independent experiment 2): 65 nM
inhibition at 10 µM (CDK20/Cyclin H; independent experiment 1): 79.2%
inhibition at 10 µM (CDK20/Cyclin H; independent experiment 2): 82.8%
inhibition at 10 µM (CDK19/Cyclin C; average of experiments): 74.8%
inhibition at 10 µM (CDK19/Cyclin C; independent experiment 1): 62.1%
inhibition at 10 µM (CDK19/Cyclin C; independent experiment 2): 87.4%
Compound: CN1C/C=C/CCOc2cccc(c2)-c2ccnc(n2)Nc2cccc(c2)C1 [SB1317]
